The record followed here is patent US12312641B2, “Sensitivity marker for antibody-drug conjugate” (priority 2018, dated 2025).

Assay [1] has as its system Human lung cancer cell line NCI-H1781. The assay can be described thus: Cell proliferation inhibition test upon SLFN11 knockdown, NCI-H1781. It is filed as cell-based. The following applies: for Cell proliferation inhibitory effect upon SLFN11 knockdown: NCI-H1781 cell lines, SLFN11 siRNA vs Non-targeting Control; for Fold change (SLFN11/Non-targeting Control): ratio of IC50. As to the method: (§1) Human lung cancer cell line NCI-H1781 was obtained from ATCC and used for evaluation. NCI-H1781 cells suspended at 2×10^3 cells/mL in RPMI-1640 medium containing 10% bovine fetal serum were seeded in a 10 cm cell culture dish at 10 mL/dish. Twenty-four hours after seeding, 100 pmol of ON-TARGETplus SLFN11 siRNA (Dharmacon Inc.) or ON-TARGETplus Non-targeting Control Pool (Dharmacon Inc.) and 30 μL of Lipofectamine™ RNAiMAX Transfection Reagent (Thermo Fisher Scientific Inc.) were suspended in 1 mL of Opti-MEM medium, and the entire amount of the suspension was added to the medium. After 72 hours, the medium was removed and the dish was washed with PBS, then the cells were dissociated and recovered from the dish using 1 mL of TrypLE™ Express. The recovered cells were suspended at 5×10^4 cells/mL in RPMI-1640 medium containing 10% bovine fetal serum, and seeded in a 96-well cell culture plate at 100 μL/well. Twenty-four hours after seeding, the medium was replaced with a medium containing 100 nM, 33 nM, 11 nM, 3.7 nM, 1.2 nM, 0.41 nM, 0.13 nM, 0.045 nM, or 0 nM of compound (1) or antibody-drug conjugate (1) at 100 μL/well. The molar concentration of antibody-drug conjugate (1) was calculated by setting the average molecular weight to 150,000. Cells were all cultured at 37° C. under 5% CO2. After 72 hours from the medium replacement, ATPlite 1 step detection system (PerkinElmer Inc.) was added at 100 μL/well. The wells were incubated at room temperature for 10 minutes, then the luminescence intensity of each well was measured.
(§2) The cell growth inhibition rate (%) at each condition was calculated using the following calculation formula: Cell growth inhibition rate (%)=100×(1−T/C) • T: Average luminescence intensity of each well to which specimen was added • C: Average luminescence intensity of each well to which 0 nM specimen was added
(§3) The 50% inhibitory concentration at each condition was calculated by fitting to the following calculation formula: Cell viability (%)=(Emax−Emin)×Specimen concentration^γ/((Emax−50)/(50−Emin)×IC50^γ+Specimen concentration^γ)+Emin • Emax: maximum cell growth inhibition rate (%) • Emin: minimum cell growth inhibition rate (%) • IC50: 50% inhibitory concentration • γ: Hill coefficient
(§4) The fitting to the calculation formula was performed using SAS Systems Release 9.2 (SAS Institute Inc.).

Assay [2] relates to Human breast cancer cell line MDA-MB-468. As to the kind of experiment: Cell proliferation inhibition test upon SLFN11 knockdown, MDA-MB-468. It is filed as cell-based. As to the method:
as §1, with “breast” for “lung”, “MDA-MB-468” for “NCI-H1781”, “[…]” for “pmol”
as §2, §3, §4

Like-named read-outs stand apart in the source and are kept apart here. A value given as a limit tells only on which side of the number the result lay.

For orientation: IC50 means the point on the concentration scale where inhibition reaches its midpoint. As to `CC[C@@]1(O)C(=O)OCc2c1cc1n(c2=O)Cc2c-1nc1cc(F)c(C)c3c1c2[C@@H](NC(=O)CO)CC3` [Compound (1)], the IC50 in assay [1] (Homo sapiens, NCI-H1781, 72 h, read-out: IC50 (nM) Non-targeting Control Pool) came to 3.3 nM; in assay [1] (Homo sapiens, NCI-H1781, 72 h, read-out: IC50 (nM) SLFN11 siRNA), 15 nM; in assay [2] (Homo sapiens, MDA-MB-468, 72 h, read-out: IC50 (nM) Non-targeting Control Pool), 4.8 nM; in assay [2] (Homo sapiens, MDA-MB-468, 72 h, read-out: IC50 (nM) SLFN11 siRNA) it was 27.5 nM. The “Cell proliferation inhibitory effect upon SLFN11 knockdown” value in assay [1] is given as “attenuated by SLFN11 knockdown”; in assay [2] (MDA-MB-468 cell lines, SLFN11 siRNA vs Non-targeting Control) it was “attenuated by SLFN11 knockdown”. Further, the “Fold change (SLFN11/Non-targeting Control)” value in assay [1] (NCI-H1781 cells) is recorded as 4.5; in assay [2] (MDA-MB-468 cells, ratio of IC50) it was 5.7.

B1: antibody-drug conjugate (1): humanized anti-hTROP2 antibody (SEQ ID NO: 1 residues 20-470, SEQ ID NO: 2 residues 21-234) conjugated to the exatecan-derivative drug-linker via a thioether bond (conjugate, chains of the INN, looked up)
VH: QVQLVQSGAEVKKPGASVKVSCKASGYTFTTAGMQWVRQAPGQGLEWMGWINTHSGVPKYAEDFKGRVTISADTSTSTAYLQLSSLKSEDTAVYYCARSGFGSSYWYFDVWGQGTLVTVSS
VL: DIQMTQSPSSLSASVGDRVTITCKASQDVSTAVAWYQQKPGKAPKLLIYSASYRYTGVPSRFSGSGSGTDFTLTISSLQPEDFAVYYCQQHYITPLTFGQGTKLEIK
modifications: exatecan-derivative drug-linker
B1: the “Cell proliferation inhibitory effect upon SLFN11 knockdown” value in assay [1] is “attenuated by SLFN11 knockdown”. The half-maximal inhibitory concentration (IC50) in assay [1] (NCI-H1781 cells, Non-targeting Control Pool, 72 hours, ATPlite, read-out: IC50 (nM) Non-targeting Control Pool) is 8 nM; in assay [1] (NCI-H1781 cells, SLFN11 siRNA knockdown, 72 hours, ATPlite, read-out: IC50 (nM) SLFN11 siRNA) it was > 100 nM; in assay [2] (MDA-MB-468 cells, Non-targeting Control Pool, 72 hours, ATPlite, read-out: IC50 (nM) Non-targeting Control Pool), > 100 nM; in assay [2] (MDA-MB-468 cells, SLFN11 siRNA knockdown, 72 hours, ATPlite, read-out: IC50 (nM) SLFN11 siRNA), > 100 nM. Moreover, in assay [1] (NCI-H1781 cells), the “Fold change (SLFN11/Non-targeting Control)” value is given as >12.5.
